In article PMC5891386 (Bioorganic & medicinal chemistry, 2018):

Tests used:
[1] = tested on: aspartate levels in cells; conditions: irrespective of PHGDH levels; cited from earlier work
[2] = Aqueous kinetic solubility; format: physicochemical; conditions: pH 7.4
PHGDH = conditions: cited from earlier work

SMILES | Aqueous Solubility (kinetic) [2] | efficacy in vivo (PHGDH) | other results
Cc1cc(C)nc(NC(=S)N2CCN(c3ccc(C(F)(F)F)cn3)CC2)c1 [Compound 27, N-(4,6-dimethylpyridin-2-yl)-4-(5-(trifluoromethyl)pyridin-2-yl)piperazine-1-carbothioamide] | – | – | aspartate levels in cells [1]: reduce aspartate levels in cells
Cc1cc(C)nc(NC(=S)N2CCCC(Nc3ccc(C(F)(F)F)cc3)C2)c1 (centres unmarked) [Compound 33] | below the limits of quantitation | – | –
Cc1cc(C)nc(NC(=S)N2CCC(Nc3cccc(C(F)(F)F)c3)CC2)c1 [Compound 37] | below the limits of quantitation | – | –
O=C(N/N=C/c1cc([N+](=O)[O-])ccc1O)c1ccc(O)cc1O [PKUMDL-WQ-2101] | – | efficacious in vivo | –
CCNC(=S)N/N=C/c1ccc(-c2ccc(C(=O)O)c(Cl)c2)o1 [PKUMDL-WQ-2201] | – | efficacious in vivo | –
